Experimental data: patent publication US20030036567A1, “PROPYLENE GLYCOL AS AN AGENT TO STIMUATE THROMBOPOIESIS” (priority 2001, published 2003)
Like-named read-outs stand apart in the source and are kept apart here.

Key:
Murine bone marrow cells = assay: Long term culture initiating cell assay (LTCIC); assay type: cell-based, C57bl mice; details: 500 ng/ml, Figure 2
Description: Example 4. Murine bone marrow was obtained from the femurs of adult C57bl mice, suspended in Myelocult (Stem Cell Technologies, Vancouver Canada), and cells were isolated by centrifugation at 500g for 10 minutes at 4 °C. Viability was determined by Trypan blue exclusion and aliquots were taken for plating efficiency in methylcellulose culture (MethoCult, Stem Cell Technologies). The remaining cell suspension was plated at a density of 6.25 x10^4/well into 24 well plates containing irradiated FBMD-1 feeder layers. To appropriate wells, propylene glycol was added to final concentration of 500 ng/ml. At weekly interval the cells were demidepopulated and fed with 250μl fresh medium. The harvested cells were washed with PBS and added to a 2.5 ml tube of MethoCult. Two 35mm petri dishes containing 1 ml each were plated from each tube. After 10 days incubation at 37 °C, 5% CO2, the dishes were scored for colonies.

[1] = single oral dose; cited from earlier work
[2] = human, in vivo
Text: Example 1. Patient 1 was a person with a history of congenital aqueductal stenosis diagnosed and treated with a Torkildson shunt. Nineteen months prior to admission, they sustained a minor head injury in a motor vehicle accident resulting in a shunt malfunction with recurrent headaches, necessitating treatment with a ventriculoperitoneal shunt. Consequent subdural hygromas became infected, leaving the patient with marked cognitive and motor impairments. They were transferred to a rehabilitation facility six months prior to admission to our hospital. […] All biochemical and hematologic abnormalities resolved within 36 hours. The patient remained well until four weeks prior to admission when they again developed fever (106), tachycardia (169 bpm), and tachypnea. Similar biochemical and hematological abnormalities were noted including a white blood cell count of 25,000 (per mm^3) and a thrombocyte count of 469,000 (per mm^3). Cultures of blood, urine, and CSF were negative. Within 36 hours the patient returned to baseline. Similar episodes were noted to occur at roughly seven day intervals. CT scans of chest, abdomen and pelvis, and a gallium scan were unremarkable. After the fourth recorded episode, the patient was transferred to our neurological unit for evaluation of an occult ventriculoperitoneal shunt infection or possible hypothalamic dysregulation.
On transfer, the patient was noted to have BP 120/80, HR 88 bpm and T 37.5. The general physical examination was notable only for generalized pallor and contractures of the lower extremities. They were awake but only able to follow single midline one-step commands. […] The patient was treated with kayexalate. The anion gap acidosis resolved within twelve hours. At that time, the patient was noted to develop oliguric renal insufficiency with a BUN of 41 (mg/dl) and creatinine of 2.2 (mg/dl). […] An unusual "green stool" which caked the patient's rectum was collected. Samples of the patient's blood, urine, and stool (collected 17 hours after the recorded onset of symptoms) were sent for toxicologic analysis. […]
In addition, prominent throughout the aspirate were eosinophils, mast cells as well as eo-basophils. Megakaryocytes were abundant.

[3] = system: human proximal tubule (HPT) cells; details: normally proliferating cultured HPT cells; cited from earlier work
[4] = diet containing 6 or 12% propylene glycol; cited from earlier work
[5] = accidental intoxication, cited from earlier work
[6] = Case report Patient 2, ingestion of antifreeze containing 30% propylene glycol; assay type: in vivo, human
Description: Example 2. A person ingested an unknown amount of the antifreeze Freeze Proof containing 30% propylene glycol earlier. Following ingestion, the child acted normally and ate well until approximately 6 hours later when they developed slurred speech, right facial drooping, an abnormal, wobbling gait, and was noted walking into walls and unable sit up by […]. They were the brought to the emergency room approximately 12 hours after ingestion with the above symptoms. At that time a toxicological screen was obtained which was qualitatively positive for propylene glycol. They were then transferred to University Medical Center where their blood pressure was 106/70, pulse was 113, respiration was 18, temperature was 36.3 C. At that time they had slurred speech, good facial symmetry, intact cranial nerve examination, but an unsteady gait, and was drowsy and lethargic but arousable. Their pupils were equal and reactive to light. […] The child was given a charcoal and sorbitol lavage through an oral naso-gastric tube as well as IV fluid therapy with normal saline. Within 4 hours of admission, the child was able to walk and talk well without evidence of slurred speech. The following morning the child was discharged from the hospital with no evidence of the symptoms originally observed.

[7] = system: CD34+CD38- hematopoietic stem cells; assay: Colony formation from CD34+CD38- hematopoietic stem cells in semi-solid culture; assay type: cell-based, human; details: 500 cells per ml, 14 days, Figure 1
Description: Example 3. CD34+CD38- cells isolated from human bone marrow (Poietic Technologies) were counted using a hemocytometer and plated in semi-solid culture media (MethoCult GF+H4435, StemCell Technologies, Vancouver, British Columbia) containing methylcellulose, fetal bovine serum, BSA, recombinant human (rh) SCF, rh GM-CSF, rh G-CSF, rh IL-3, rh IL-6, rh erythropoietin, and L-glutamine to which were added varying concentrations of propylene glycol (FW=76.1 Density=1.04g/ml Fisher Scientific). The cells were plated at a density of 500 cells per 1 ml per 35 mm petri dish. After incubation at 37 °C, 5% CO2 for 14 days, the dishes were scored for colony formation.

[8] = occupational exposure; cited from earlier work

**Q.** What does the source list for `CC(O)CO` (stereo not shown) [propylene glycol, 1,2-propanediol]?
**A.** increase of total cell number on the cultures over cells not exposed (Murine bone marrow cells): 50%; spleen weight [1]: significant increase in spleen weight; BUN [2]: 41 mg/dL; LDH [2]: 528 U/liter; SGOT [2]: 151 U/liter; anion gap [2]: 24; bicarbonate [2]: 16 mmol/L; bone marrow studies [2]: relatively hypercellular marrow with increased myeloid precursors and megakaryocytes; creatinine [2]: 2.2 mg/dL; creatinine kinase [2]: 8400 U/liter; hematologic response to acute exposure [2]: dramatic leukocytosis and thrombocytosis; potassium [2]: 5.8 mmol/L; concentration with toxic effects [3]: 50000 µM; erythrocyte effects [4]: accelerated erythropoiesis and reduction in red blood cell life span; WBC ([5]; chart review): 25,000 per mm^3; anion gap [5]: 28; biochemical or hematological outcome [6]: no biochemical or hematological abnormalities; effect on CFU formed from CD34+ cells [7]: increased CFU formed from CD34+ cells

**Q.** For `COC(C)COC(C)CO` (stereo not shown) [dipropylene glycol monomethyl ether], which bone marrow findings [8] is on record?
**A.** generally hypocellular marrow with decreased myeloid to erythroid ratios and an abundance of stored iron
